≈ marks a conversion by molar mass, not a printed value. Like-named read-outs stand apart in the source and are kept apart here.
Columns and labels:
[1] = tested on: M. abscessus ATCC 19977; test: MIC assay in 96-well plate format, wild-type strain; type: cell-based, Mycobacterium abscessus; conditions: for MIC ratio: WT MIC/Δarr strain MIC
Method: (§1) MIC determination was carried out in 96-well plate format as previously described.^[13-14] 96-well plates were initially set up with 100 μL of 7H9 per well. For each compound, a ten-point two-fold dilution series starting at twice the desired highest concentration was dispensed onto the 96-well plates using a Tecan D300e Digital Dispenser, with the DMSO concentration normalized to 2%. M. abscessus culture grown to mid-log phase (OD600=0.4-0.6) was diluted to OD600=0.1 (1×10^7 CFU/mL). […] Untreated control wells are included on each plate that contain bacteria suspension and 1% DMSO. Plates were sealed with parafilm, stored in boxes with wet paper towels and incubated at 37° C. with shaking (110 RPM). Plates were incubated for 3 days. To determine growth, OD600 was measured using a Tecan Infinite M200 plate reader on Day 0 and Day 3. Two biological replicates were performed. Clarithromycin was included in each experiment as a positive control.
(§2) For each well on the 96-well plate, bacterial growth was calculated by subtracting the Day 0 OD600 value from the Day 3 OD600 value. […] For compound-containing wells, percentage growth was calculated by dividing their growth values by the average drug-free bacterial growth for the compound series and multiplying by 100. For each compound series, we plotted percentage growth versus compound concentration.

[2] = tested on: Δarr M. abscessus; test: MIC assay, isogenic arr-deleted strain; type: cell-based, Mycobacterium abscessus; conditions: arr-deleted strain; 90% growth inhibition
Method: as §1, §2

[3] = Plasma protein binding assay (rapid equilibrium dialysis); type: in vitro ADME; conditions: 4 h, 10000 ng/mL
Method: DMSO stocks were spiked into plasma to a concentration of 10,000 ng/mL. 200 μL of spiked plasma was pipetted into the sample chamber of the rapid equilibrium dialysis (RED) cartridge. 350 μL of PBS was added to the adjacent cartridge. The plate containing the RED was sealed and incubated at 37° C. on the thermomixer at 300 RPM for 4 h. After incubation, 50 μL aliquots of plasma were removed and added to 50 μL of blank plasma in a deep well plate (1:1). Similarly, 50 μL aliquots of PBS were removed and added to 50 μL of blank plasma. This created an identical matrix between buffer and non-buffer samples. Samples were processed and quantified as specified in the LC-MS/MS analytical method.

[4] = M. abscessus ATCC 19977, 90% growth inhibition, read-out: WT Mab MIC
[5] = Mycobacterium abscessus ATCC 19977, Table 11, read-out: MIC
[6] = Mycobacteroides abscessus, ATCC19977, Table 15, heterocyclic aromatic carbamates, read-out: WT Mab MIC
[7] = Mycobacteroides abscessus, ATCC19977, Table 14, carbamate analogs, read-out: WT Mab MIC

With `CCC(C)C(=O)OC1C(C)C(OC)C=COC2(C)Oc3c(C)c(O)c4c(c3C2=O)C2=NC3(CCN(CC(C)C)CC3)NC2=C(NC(=O)C(C)=CC=CC(C)C(O)C(C)C(O)C1C)C4=O` (mixture of isomers) [5k] the MIC [1, 4] was 1100 nM, the MIC ratio [1] was 39.3 and the “Δarr Mab MIC” value [2] was 28 nM.
In the case of `CO[C@H]1/C=C/O[C@@]2(C)Oc3c(C)c(O)c4c(c3C2=O)C2=NC3(CCN(CC(C)C)CC3)NC2=C(NC(=O)/C(C)=C/C=C/[C@H](C)[C@H](O)[C@@H](C)[C@@H](O)[C@@H](C)[C@H](OC(=O)c2cccc(C)c2)[C@@H]1C)C4=O` [5c, 25-O-(3-methylbenzoyl)-25-O-desacetyrifabutin], the MIC [1, 4] is reported as 75 nM (≈ 0.0692 µg/mL), the MIC ratio [1] is reported as 1.2 and the “Δarr Mab MIC” value [2] is reported as 65 nM.
In the case of `CO[C@H]1/C=C/O[C@@]2(C)Oc3c(C)c(O)c4c(c3C2=O)C2=NC3(CCN(CC(C)C)CC3)NC2=C(NC(=O)/C(C)=C/C=C/[C@H](C)[C@H](O)[C@@H](C)[C@@H](O)[C@@H](C)[C@H](OC(=O)c2ccc(C)cc2)[C@@H]1C)C4=O` [5d, 25-O-(4-methylbenzoyl)-25-O-desacetyrifabutin], the MIC [1, 4] is reported as 200 nM (≈ 0.185 µg/mL), the MIC ratio [1] is reported as 1.8 and the “Δarr Mab MIC” value [2] is reported as 110 nM.
For `CO[C@H]1/C=C/O[C@@]2(C)Oc3c(C)c(O)c4c(c3C2=O)C2=NC3(CCN(CC(C)C)CC3)NC2=C(NC(=O)/C(C)=C/C=C/[C@H](C)[C@H](O)[C@@H](C)[C@@H](O)[C@@H](C)[C@H](OC(=O)c2ccccc2F)[C@@H]1C)C4=O` [5e, 25-O-(2-fluorobenzoyl)-25-O-desacetyrifabutin], the MIC [1, 4] was 60 nM (≈ 0.0556 µg/mL), the MIC ratio [1] was 1.0 and the “Δarr Mab MIC” value [2] was 58 nM.
Molecule `CO[C@H]1/C=C/O[C@@]2(C)Oc3c(C)c(O)c4c(c3C2=O)C2=NC3(CCN(CC(C)C)CC3)NC2=C(NC(=O)/C(C)=C/C=C/[C@H](C)[C@H](O)[C@@H](C)[C@@H](O)[C@@H](C)[C@H](OC(=O)N2CCN(C)C(C)C2)[C@@H]1C)C4=O` (stereo partly drawn) [UMN52] has an MIC [1, 5] of 97 nM (≈ 0.0917 µg/mL).
For `CO[C@H]1/C=C/O[C@@]2(C)Oc3c(C)c(O)c4c(c3C2=O)C2=NC3(CCN(CC(C)C)CC3)NC2=C(NC(=O)/C(C)=C/C=C/[C@H](C)[C@H](O)[C@@H](C)[C@@H](O)[C@@H](C)[C@H](OC(=O)c2cc(Cl)c(Cl)cc2C(=O)O)[C@@H]1C)C4=O` [UMN99, 25-O-(6-carboxyl-3,4-dichlorobenzoyl)-25-O-desacetyrifabutin], the MIC [1, 5] was 100 nM (≈ 0.102 µg/mL).
With `CO[C@H]1/C=C/O[C@@]2(C)Oc3c(C)c(O)c4c(c3C2=O)C2=NC3(CCN(CC(C)C)CC3)NC2=C(NC(=O)/C(C)=C/C=C/[C@H](C)[C@H](O)[C@@H](C)[C@@H](O)[C@@H](C)[C@H](OC(=O)NCc2cn(-c3cccc(Br)c3)nn2)[C@@H]1C)C4=O` [UMN104] the MIC [1, 5] was 32 nM (≈ 0.0347 µg/mL).
Work on `CO[C@H]1/C=C/O[C@@]2(C)Oc3c(C)c(O)c4c(c3C2=O)C2=NC3(CCN(CC(C)C)CC3)NC2=C(NC(=O)/C(C)=C/C=C/[C@H](C)[C@H](O)[C@@H](C)[C@@H](O)[C@@H](C)[C@H](OC(=O)Nc2ccccc2F)[C@@H]1C)C4=O` [UMN106] yielded an MIC [1, 5] of 34 nM (≈ 0.032 µg/mL).
In the case of `CO[C@H]1/C=C/O[C@@]2(C)Oc3c(C)c(O)c4c(c3C2=O)C2=NC3(CCN(CC(C)C)CC3)NC2=C(NC(=O)/C(C)=C/C=C/[C@H](C)[C@H](O)[C@@H](C)[C@@H](O)[C@@H](C)[C@H](OC(=O)Nc2cccc(F)c2)[C@@H]1C)C4=O` [UMN107], the MIC [1, 5] is reported as 100 nM (≈ 0.0942 µg/mL).
For `CO[C@H]1/C=C/O[C@@]2(C)Oc3c(C)c(O)c4c(c3C2=O)C2=NC3(CCN(CC(C)C)CC3)NC2=C(NC(=O)/C(C)=C/C=C/[C@H](C)[C@H](O)[C@@H](C)[C@@H](O)[C@@H](C)[C@H](OC(=O)Nc2ccc(F)cc2)[C@@H]1C)C4=O` [UMN108], the MIC [1, 5] was 62 nM (≈ 0.0584 µg/mL).
`CO[C@H]1/C=C/O[C@@]2(C)Oc3c(C)c(O)c4c(c3C2=O)C2=NC3(CCN(CC(C)C)CC3)NC2=C(NC(=O)/C(C)=C/C=C/[C@H](C)[C@H](O)[C@@H](C)[C@@H](O)[C@@H](C)[C@H](OC(=O)Nc2ccccn2)[C@@H]1C)C4=O` [UMN117] showed a ƒu [3] of 0.9% and an MIC [1, 6] of 25 nM (≈ 0.0231 µg/mL).
For `CO[C@H]1/C=C/O[C@@]2(C)Oc3c(C)c(O)c4c(c3C2=O)C2=NC3(CCN(CC(C)C)CC3)NC2=C(NC(=O)/C(C)=C/C=C/[C@H](C)[C@H](O)[C@@H](C)[C@@H](O)[C@@H](C)[C@H](OC(=O)Nc2ccnnc2)[C@@H]1C)C4=O` [UMN119], the ƒu [3] was 6.1% and the MIC [1, 6] was 50 nM (≈ 0.0463 µg/mL).
`COc1ccc(S(=O)(=O)NC(=O)O[C@H]2[C@H](C)[C@H](O)[C@H](C)[C@@H](O)[C@@H](C)/C=C/C=C(\C)C(=O)NC3=C4NC5(CCN(CC(C)C)CC5)N=C4c4c(c(O)c(C)c5c4C(=O)[C@@](C)(O/C=C/[C@H](OC)[C@H]2C)O5)C3=O)cc1` [UMN122] showed an MIC [1, 5] of 140 nM (≈ 0.143 µg/mL).
Molecule `CO[C@H]1/C=C/O[C@@]2(C)Oc3c(C)c(O)c4c(c3C2=O)C2=NC3(CCN(CC(C)C)CC3)NC2=C(NC(=O)/C(C)=C/C=C/[C@H](C)[C@H](O)[C@@H](C)[C@@H](O)[C@@H](C)[C@H](OC(=O)Nc2nccc3ccccc23)[C@@H]1C)C4=O` [UMN124] has an MIC [1, 5] of 27 nM (≈ 0.0263 µg/mL).
With `CO[C@H]1/C=C/O[C@@]2(C)Oc3c(C)c(O)c4c(c3C2=O)C2=NC3(CCN(CC(C)C)CC3)NC2=C(NC(=O)/C(C)=C/C=C/[C@H](C)[C@H](O)[C@@H](C)[C@@H](O)[C@@H](C)[C@H](OC(=O)Nc2ccc3cnccc3n2)[C@@H]1C)C4=O` [UMN127] the MIC [1, 5] was 30 nM (≈ 0.0293 µg/mL).
Molecule `CO[C@H]1/C=C/O[C@@]2(C)Oc3c(C)c(O)c4c(c3C2=O)C2=NC3(CCN(CC(C)C)CC3)NC2=C(NC(=O)/C(C)=C/C=C/[C@H](C)[C@H](O)[C@@H](C)[C@@H](O)[C@@H](C)[C@H](OC(=O)Nc2cnn3ccccc23)[C@@H]1C)C4=O` [UMN129] has an MIC [1, 5] of 44 nM (≈ 0.0424 µg/mL).
In the case of `CO[C@H]1/C=C/O[C@@]2(C)Oc3c(C)c(O)c4c(c3C2=O)C2=NC3(CCN(CC(C)C)CC3)NC2=C(NC(=O)/C(C)=C/C=C/[C@H](C)[C@H](O)[C@@H](C)[C@@H](O)[C@@H](C)[C@H](OC(=O)Nc2cnc3cc(C)nn3c2)[C@@H]1C)C4=O` [UMN130], the MIC [1, 5] is reported as 49 nM (≈ 0.048 µg/mL).
`CO[C@H]1/C=C/O[C@@]2(C)Oc3c(C)c(O)c4c(c3C2=O)C2=NC3(CCN(CC(C)C)CC3)NC2=C(NC(=O)/C(C)=C/C=C/[C@H](C)[C@H](O)[C@@H](C)[C@@H](O)[C@@H](C)[C@H](OC(=O)Nc2cnc3ccccc3n2)[C@@H]1C)C4=O` [UMN134] gave an MIC [1, 5] of 30 nM (≈ 0.0293 µg/mL).
Molecule `CO[C@H]1/C=C/O[C@@]2(C)Oc3c(C)c(O)c4c(c3C2=O)C2=NC3(CCN(CC(C)C)CC3)NC2=C(NC(=O)/C(C)=C/C=C/[C@H](C)[C@H](O)[C@@H](C)[C@@H](O)[C@@H](C)[C@H](OC(=O)Nc2cn3ccccc3n2)[C@@H]1C)C4=O` [UMN136] has an MIC [1, 5] of 61 nM (≈ 0.0588 µg/mL).
Molecule `CO[C@H]1/C=C/O[C@@]2(C)Oc3c(C)c(O)c4c(c3C2=O)C2=NC3(CCN(CC(C)C)CC3)NC2=C(NC(=O)/C(C)=C/C=C/[C@H](C)[C@H](O)[C@@H](C)[C@@H](O)[C@@H](C)[C@H](OC(=O)Nc2cc3ccccn3n2)[C@@H]1C)C4=O` [UMN142] has an MIC [1, 5] of 33 nM (≈ 0.0318 µg/mL).
With `CO[C@H]1/C=C/O[C@@]2(C)Oc3c(C)c(O)c4c(c3C2=O)C2=NC3(CCN(CC(C)C)CC3)NC2=C(NC(=O)/C(C)=C/C=C/[C@H](C)[C@H](O)[C@@H](C)[C@@H](O)[C@@H](C)[C@H](OC(=O)Nc2cn3ccsc3n2)[C@@H]1C)C4=O` [UMN145] the MIC [1, 5] was 65 nM (≈ 0.0631 µg/mL).
Molecule `CO[C@H]1/C=C/O[C@@]2(C)Oc3c(C)c(O)c4c(c3C2=O)C2=NC3(CCN(CC(C)C)CC3)NC2=C(NC(=O)/C(C)=C/C=C/[C@H](C)[C@H](O)[C@@H](C)[C@@H](O)[C@@H](C)[C@H](OC(=O)NC2CCN(C)CC2)[C@@H]1C)C4=O` [UMN146] has a ƒu [3] of 10.8% and an MIC [1, 7] of 90 nM (≈ 0.0851 µg/mL).
`CO[C@H]1/C=C/O[C@@]2(C)Oc3c(C)c(O)c4c(c3C2=O)C2=NC3(CCN(CC(C)C)CC3)NC2=C(NC(=O)/C(C)=C/C=C/[C@H](C)[C@H](O)[C@@H](C)[C@@H](O)[C@@H](C)[C@H](OC(=O)NC2CCN(C(C)C)CC2)[C@@H]1C)C4=O` [UMN147] showed a ƒu [3] of 7.5% and an MIC [1, 7] of 98 nM (≈ 0.0954 µg/mL).
With `CCN1CCC(NC(=O)O[C@H]2[C@H](C)[C@H](O)[C@H](C)[C@@H](O)[C@@H](C)/C=C/C=C(\C)C(=O)NC3=C4NC5(CCN(CC(C)C)CC5)N=C4c4c(c(O)c(C)c5c4C(=O)[C@@](C)(O/C=C/[C@H](OC)[C@H]2C)O5)C3=O)CC1` [UMN149] the ƒu [3] was 10.4% and the MIC [1, 7] was 78 nM (≈ 0.0748 µg/mL).
In the case of `CO[C@H]1/C=C/O[C@@]2(C)Oc3c(C)c(O)c4c(c3C2=O)C2=NC3(CCN(CC(C)C)CC3)NC2=C(NC(=O)/C(C)=C/C=C/[C@H](C)[C@H](O)[C@@H](C)[C@@H](O)[C@@H](C)[C@H](OC(=O)NC2CCN(CC(C)C)CC2)[C@@H]1C)C4=O` [UMN150], the ƒu [3] is reported as 3.6% and the MIC [1, 7] is reported as 54 nM (≈ 0.0533 µg/mL).
